# Reference: the Kinase Knowledgebase extract (Sharma et al. 2016)
# Biological target: MAPK14 (human) (UniProt Q16539)
# Test: Inhibition of LPS Stimulated TNF Production by U937 Cells
# Details: not given
# Chain of MAPK14 (human) (Q16539 whole entry, looked up): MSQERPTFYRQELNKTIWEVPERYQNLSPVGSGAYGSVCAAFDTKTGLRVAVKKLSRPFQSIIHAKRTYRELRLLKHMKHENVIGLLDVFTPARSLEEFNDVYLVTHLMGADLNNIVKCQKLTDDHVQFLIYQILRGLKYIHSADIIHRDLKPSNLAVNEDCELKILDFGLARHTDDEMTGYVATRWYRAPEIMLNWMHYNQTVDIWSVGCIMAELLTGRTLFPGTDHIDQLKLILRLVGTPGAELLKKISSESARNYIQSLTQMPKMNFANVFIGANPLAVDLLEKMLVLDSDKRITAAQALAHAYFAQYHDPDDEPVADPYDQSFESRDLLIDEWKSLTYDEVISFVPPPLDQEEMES
row,SMILES,IC50 [µM]
1,O=S(=O)(NCc1[nH]nc(-c2ccc(F)cc2)c1-c1ccncc1)c1cc(Cl)c(Cl)s1,1.81
2,Cc1cc(Cl)ccc1OCC1SCCN1C(=O)Cn1nc(-c2ccc(F)cc2)c(-c2ccncc2)c1C (stereo not drawn),> 10

# Same assay, conditions: concentration not given here
row,SMILES,inhibition [%]
1,Cc1cccc(C)c1NC(=O)Cn1nc(-c2ccc(F)cc2)c(-c2ccncc2)c1C,18
2,O=C(NCCc1[nH]nc(-c2ccc(F)cc2)c1-c1ccncc1)Nc1cccc(F)c1,66
3,O=[N+]([O-])c1ccc(S(=O)(=O)NCc2[nH]nc(-c3ccc(F)cc3)c2-c2ccncc2)cc1,2
4,CS(=O)(=O)NCCc1[nH]nc(-c2ccc(F)cc2)c1-c1ccncc1,57
5,O=C(NCCCc1[nH]nc(-c2ccc(F)cc2)c1-c1ccncc1)NCCc1ccc(F)cc1,9
6,COCC(=O)NCCc1[nH]nc(-c2ccc(F)cc2)c1-c1ccncc1,43
7,O=C(NCCCc1[nH]nc(-c2ccc(F)cc2)c1-c1ccncc1)Nc1cccc(F)c1,61
8,COc1ccc(CC(=O)NCCCc2[nH]nc(-c3ccc(F)cc3)c2-c2ccncc2)cc1OC,67
9,COc1ccc(Cl)cc1S(=O)(=O)NCCCc1[nH]nc(-c2ccc(F)cc2)c1-c1ccncc1,64
10,O=C(NCCc1[nH]nc(-c2ccc(F)cc2)c1-c1ccncc1)Nc1ccc(Oc2ccccc2)cc1,24
11,CCOC(=O)NCCc1[nH]nc(-c2ccc(F)cc2)c1-c1ccncc1,55

# Biological target: MAPK14 (human) (UniProt Q16539)
# Test: Inhibition of MAPK14 Kinase Activity by PHAS-I Assay
# Details: not given
row,SMILES,IC50 [µM]
1,O=C(NCCCc1[nH]nc(-c2ccc(F)cc2)c1-c1ccncc1)NCCc1ccc(F)cc1,0.019
2,COc1ccc(Cl)cc1S(=O)(=O)NCCCc1[nH]nc(-c2ccc(F)cc2)c1-c1ccncc1,< 0.1
3,C[C@@H](NC(=O)NCc1[nH]nc(-c2ccc(F)cc2)c1-c1ccncc1)c1ccccc1,0.91
4,O=S(=O)(NCc1[nH]nc(-c2ccc(F)cc2)c1-c1ccncc1)c1ccc2ccccc2c1,0.28
5,CCOC(=O)N1CCC(Nc2n[nH]c(-c3ccc(Cl)cc3)c2-c2ccncc2)CC1,> 100
6,COc1cccc(C(=O)N[C@@H](C)c2[nH]nc(-c3ccc(F)cc3)c2-c2ccncc2)c1,1.37
7,Clc1ccc(-c2n[nH]c(SCOC3CCCCO3)c2-c2ccncc2)cc1 (stereo not drawn),0.11
8,Clc1ccc(-c2n[nH]c(N3CCSCC3)c2-c2ccncc2)cc1,0.77
9,O=C(N[C@H](Cc1ccccc1)c1[nH]nc(-c2ccc(F)cc2)c1-c1ccncc1)c1cnc2ccccc2n1,38.1
10,O=C(Nc1ccccc1F)N[C@@H](Cc1ccccc1)c1[nH]nc(-c2ccc(F)cc2)c1-c1ccncc1,14
11,CCN(CC)C(=O)N[C@@H](Cc1ccccc1)c1[nH]nc(-c2ccc(F)cc2)c1-c1ccncc1,2.2

# Same assay, conditions: concentration not given here
row,SMILES,inhibition [%]
1,Cc1cccc(C)c1NC(=O)Cn1nc(-c2ccc(F)cc2)c(-c2ccncc2)c1C,83
2,O=C(NCCc1[nH]nc(-c2ccc(F)cc2)c1-c1ccncc1)Nc1cccc(F)c1,72
3,O=S(=O)(NCc1[nH]nc(-c2ccc(F)cc2)c1-c1ccncc1)c1cc(Cl)c(Cl)s1,78
4,O=[N+]([O-])c1ccc(S(=O)(=O)NCc2[nH]nc(-c3ccc(F)cc3)c2-c2ccncc2)cc1,47
5,CS(=O)(=O)NCCc1[nH]nc(-c2ccc(F)cc2)c1-c1ccncc1,89
6,COCC(=O)NCCc1[nH]nc(-c2ccc(F)cc2)c1-c1ccncc1,55
7,O=C(NCCCc1[nH]nc(-c2ccc(F)cc2)c1-c1ccncc1)Nc1cccc(F)c1,80
8,COc1ccc(CC(=O)NCCCc2[nH]nc(-c3ccc(F)cc3)c2-c2ccncc2)cc1OC,67
9,O=C(NCCc1[nH]nc(-c2ccc(F)cc2)c1-c1ccncc1)Nc1ccc(Oc2ccccc2)cc1,63
10,Cc1cc(Cl)ccc1OCC1SCCN1C(=O)Cn1nc(-c2ccc(F)cc2)c(-c2ccncc2)c1C (stereo not drawn),47
11,CCOC(=O)NCCc1[nH]nc(-c2ccc(F)cc2)c1-c1ccncc1,79
12,O=C(NCCc1[nH]nc(-c2ccc(F)cc2)c1-c1ccncc1)C1CC1,85
13,CNC(=O)NCCCc1[nH]nc(-c2ccc(F)cc2)c1-c1ccncc1,84
14,Cc1ccc(C(=O)NCCCc2[nH]nc(-c3ccc(F)cc3)c2-c2ccncc2)cc1,86
15,COC(=O)C(Cc1ccc([N+](=O)[O-])cc1)NC(=O)Cn1nc(-c2ccc(F)cc2)c(-c2ccncc2)c1C (stereo not drawn),75
16,COC(=O)C(NC(=O)Cn1nc(-c2ccc(F)cc2)c(-c2ccncc2)c1C)C(C)C (stereo not drawn),82
17,COc1cccc(CC(=O)NCCCc2[nH]nc(-c3ccc(F)cc3)c2-c2ccncc2)c1,92
18,CC(=O)N1CCN(C(=O)Cn2nc(-c3ccc(F)cc3)c(-c3ccncc3)c2C)CC1,81
19,Cc1c(-c2ccncc2)c(-c2ccc(F)cc2)nn1CC(=O)N1CCCCC1,78
20,CCN1CC(NC(=O)Cn2nc(-c3ccc(F)cc3)c(-c3ccncc3)c2C)CN1CC,47
21,Cc1c(-c2ccncc2)c(-c2ccc(F)cc2)nn1CC(=O)NCC(=O)OC(C)(C)C,34
22,Cc1c(-c2ccncc2)c(-c2ccc(F)cc2)nn1CC(=O)N(C)Cc1ccccc1,73
23,Cc1c(-c2ccncc2)c(-c2ccc(F)cc2)nn1CC(=O)NC1CCSC1=O (stereo not drawn),69
24,Cc1cccc(NC(=O)Cn2nc(-c3ccc(F)cc3)c(-c3ccncc3)c2C)c1,86
25,CCCCCCOc1ccc(NC(=O)Cn2nc(-c3ccc(F)cc3)c(-c3ccncc3)c2C)cc1,80
26,CN(C(=O)NCCCc1[nH]nc(-c2ccc(F)cc2)c1-c1ccncc1)c1ccccc1,76
27,Cc1cccc(C)c1NC(=O)NCCc1[nH]nc(-c2ccc(F)cc2)c1-c1ccncc1,56

row,SMILES,inhibition [%]
1,O=S(=O)(NCc1[nH]nc(-c2ccc(F)cc2)c1-c1ccncc1)c1cccc2cccnc12,73
2,COc1ccc(NC(=O)NCCc2[nH]nc(-c3ccc(F)cc3)c2-c2ccncc2)c(OC)c1,49
3,O=C(NCCCc1[nH]nc(-c2ccc(F)cc2)c1-c1ccncc1)NCc1ccccc1,82
4,COc1ccc(S(=O)(=O)NCCCc2[nH]nc(-c3ccc(F)cc3)c2-c2ccncc2)cc1,71
5,COc1ccc(OC)c(NC(=O)Cn2nc(-c3ccc(F)cc3)c(-c3ccncc3)c2C)c1,85
6,Cc1c(-c2ccncc2)c(-c2ccc(F)cc2)nn1CC(=O)Nc1ccccc1Cc1ccccc1,92
7,CCCC(CCC)NC(=O)Cn1nc(-c2ccc(F)cc2)c(-c2ccncc2)c1C,77
8,Cc1c(-c2ccncc2)c(-c2ccc(F)cc2)nn1CC(=O)NC1CCN(CCc2c[nH]c3ccccc23)CC1,84
9,Cc1c(-c2ccncc2)c(-c2ccc(F)cc2)nn1CC(=O)Nc1cc(F)cc(F)c1,75
10,Cc1c(-c2ccncc2)c(-c2ccc(F)cc2)nn1CC(=O)Nc1ccc(OCCOc2ccccc2)cc1,75
11,Cc1c(-c2ccncc2)c(-c2ccc(F)cc2)nn1CC(=O)N1CCOCC1,70
12,CCCN(CCC)CC(C)NC(=O)Cn1nc(-c2ccc(F)cc2)c(-c2ccncc2)c1C (stereo not drawn),17
13,Cc1c(-c2ccncc2)c(-c2ccc(F)cc2)nn1CC(=O)NC1CCN(Cc2ccccc2)CC1,70
14,CC(=O)Nc1ccc(S(=O)(=O)NCc2[nH]nc(-c3ccc(F)cc3)c2-c2ccncc2)cc1,66
15,CCCOC(=O)NCCc1[nH]nc(-c2ccc(F)cc2)c1-c1ccncc1,78
16,Cc1c(-c2ccncc2)c(-c2ccc(F)cc2)nn1CC(=O)Nc1ccccc1C(C)C,94
17,Cc1c(-c2ccncc2)c(-c2ccc(F)cc2)nn1CC(=O)N(Cc1ccco1)CC(C)C,48
18,Cc1c(-c2ccncc2)c(-c2ccc(F)cc2)nn1CC(=O)Nc1ccc(-n2ccc(C(F)(F)F)n2)cc1,87
19,COCC(C)NC(=O)Cn1nc(-c2ccc(F)cc2)c(-c2ccncc2)c1C (stereo not drawn),60
20,Cc1c(-c2ccncc2)c(-c2ccc(F)cc2)nn1CC(=O)Nc1ccccc1SCCCc1ccccc1,80
21,CCN(Cc1c(F)cccc1Cl)C(=O)Cn1nc(-c2ccc(F)cc2)c(-c2ccncc2)c1C,46
22,Cc1c(-c2ccncc2)c(-c2ccc(F)cc2)nn1CC(=O)NC1Cc2ccccc2C1,69
23,O=C(Cc1cccs1)NCCCc1[nH]nc(-c2ccc(F)cc2)c1-c1ccncc1,90
24,CCCOC(=O)NCCCc1[nH]nc(-c2ccc(F)cc2)c1-c1ccncc1,90
25,Cc1c(-c2ccncc2)c(-c2ccc(F)cc2)nn1CC(=O)Nc1c(Cl)cccc1Cl,89
26,Cc1c(-c2ccncc2)c(-c2ccc(F)cc2)nn1CC(=O)Nc1ccccc1C(=O)OC(C)C,88
27,CC[C@H](C)[C@H](NC(=O)Cn1nc(-c2ccc(F)cc2)c(-c2ccncc2)c1C)C(=O)OC,38

row,SMILES,inhibition [%]
1,Cc1c(-c2ccncc2)c(-c2ccc(F)cc2)nn1CC(=O)NC1CCN(Cc2ccccc2)C1 (stereo not drawn),73
2,Cc1c(-c2ccncc2)c(-c2ccc(F)cc2)nn1CC(=O)Nc1cc([N+](=O)[O-])cc([N+](=O)[O-])c1,90
3,O=C(NCCCc1[nH]nc(-c2ccc(F)cc2)c1-c1ccncc1)C1CC1,77
4,Cc1c(-c2ccncc2)c(-c2ccc(F)cc2)nn1CC(=O)N[C@@H](C)c1cccc2ccccc12,74
5,O=S(=O)(Cc1ccccc1)NCCCc1[nH]nc(-c2ccc(F)cc2)c1-c1ccncc1,87
6,CCNC(=O)NCCCc1[nH]nc(-c2ccc(F)cc2)c1-c1ccncc1,89
7,Cc1c(-c2ccncc2)c(-c2ccc(F)cc2)nn1CC(=O)Nc1ccc(CSc2ccc(Cl)cc2)cc1,67
8,CCCCNS(=O)(=O)c1cccc(NC(=O)Cn2nc(-c3ccc(F)cc3)c(-c3ccncc3)c2C)c1,77
9,CS(=O)(=O)NCCCc1[nH]nc(-c2ccc(F)cc2)c1-c1ccncc1,84
10,CCCNC(=O)NCCCc1[nH]nc(-c2ccc(F)cc2)c1-c1ccncc1,88
11,Cc1c(-c2ccncc2)c(-c2ccc(F)cc2)nn1CC(=O)Nc1ccc(Cl)nc1,94
12,Cc1c(-c2ccncc2)c(-c2ccc(F)cc2)nn1CC(=O)N1CCSC1c1ccco1 (stereo not drawn),78
13,Cc1c(-c2ccncc2)c(-c2ccc(F)cc2)nn1CC(=O)NC1CCCc2ccccc21 (stereo not drawn),76
14,COCCN(CC1CCCCC1)C(=O)Cn1nc(-c2ccc(F)cc2)c(-c2ccncc2)c1C,63
15,Cc1cccc(C)c1NC(=O)NCCCc1[nH]nc(-c2ccc(F)cc2)c1-c1ccncc1,88
16,Cc1ccc(S(=O)(=O)NCCCc2[nH]nc(-c3ccc(F)cc3)c2-c2ccncc2)cc1,68
17,O=C(NCCCc1[nH]nc(-c2ccc(F)cc2)c1-c1ccncc1)[C@H]1CCCN1,81
18,Cc1ccc(C)c(C(=O)c2ccccc2NC(=O)Cn2nc(-c3ccc(F)cc3)c(-c3ccncc3)c2C)c1,84
19,Cc1c(-c2ccncc2)c(-c2ccc(F)cc2)nn1CC(=O)NC1CCCCCC1,82
20,CC(C)OC(=O)NCCc1[nH]nc(-c2ccc(F)cc2)c1-c1ccncc1,85
21,COc1ccc(CCN(CCC#N)C(=O)Cn2nc(-c3ccc(F)cc3)c(-c3ccncc3)c2C)cc1OC,72
22,O=C(NCCCc1[nH]nc(-c2ccc(F)cc2)c1-c1ccncc1)c1cnc2ccccc2n1,68
23,O=C(NCCCc1[nH]nc(-c2ccc(F)cc2)c1-c1ccncc1)c1ccccn1,69
24,O=C(NCCCc1[nH]nc(-c2ccc(F)cc2)c1-c1ccncc1)Nc1ccccc1,81
25,O=C(NCCCc1[nH]nc(-c2ccc(F)cc2)c1-c1ccncc1)c1cccc(Br)c1,70
